Entries after “also recorded” stand apart in the source; their conditions may differ.
How the values were obtained:
[1] = test system: Cholesterol in serum; assay: Serum cholesterol lowering activity in rats on high-fat feed, single oral dose; format: in vivo, Wister-Imamich strain male rats; details: rat, 75 mg/kg oral, 6 hours after administration
Source text: The cholesterol lowering activity of the ascochlorin derivatives of this invention was observed by the use of Wister-Imamich strain male rats weighing 230 ± 30 g which had been bred with the use of high-fat feed comprising 1000 g of powdery chow CLEA CE-2 (sold by NIHON CLEA KABUSHIKI KAISHA) admixed with 10 g of cholesterol, 95 g of hydrogenated coconut oil, 2 g of cholic acid, 150 g of milk casein and 671 g of sucrose.
The rats were divided into groups of five members each, and orally administered with a different ascochlorin derivative as a suspension in gum arabic aqueous solution in a dose of 75 mg/kg.body weight. The rats were kept from eating food, and 6 hours after the administration, the blood of each rat was sampled from its heart. The total amount of cholesterol in serum was determined by a modified Zurkowski method (Clinical Chemistry, 10, 451, 1964) with the use of a colorimeter for blood analysis (sold by KYOTO DAIICHI KAGAKU).

[2] = test system: blood platelet; assay: Aggregation inhibition activity of blood platelet (ADP-induced, platelet rich plasma of orally dosed rats); format: in vivo, Wister-Imamich strain male rats; details: rat, 20 mg/kg oral, 6 hours; adenosine-5'-diphosphate 10^-5 M in platelet rich plasma
Method: In this Example Wister-Imamich strain male rats weighing 230 ± 30 g which had been bred with the use of a commercial chow, CLEA CE-2 were used.
The rats were divided into groups of five members each, and orally administered with a different ascochlorin derivative as a suspension in 2% gum arabic aqueous solution in a dose of 20 mg/kg.body weight. Six hours after the administration, the blood of each rat was sampled from the heart and after the addition of citric acid, the blood sample was centrifuged at 1,500 r.p.m. for 10 minutes to obtain platelet rich plasma. The anti-aggregation effect when the concentration of adenosine-5'-diphosphatein the platelet rich plasma is ultimately 10^^-5 M is shown in Table II.
As positive controls, ascochlorin, ethyl-α-(p-chlorophenoxy) isobutylate and acetyl salicyclic acid were used. The aggregation inhibition ratio was evaluated in percent by comparing the increase of transmission rate caused by the addition of adenosin-5'-diphosphate to platelet rich plasma of the control group (no medication) with that caused on the groups administered with an ascochlorin derivative which is calculated for 100.

[3] = Acute toxicity, mouse; details: in vivo
Source text: (§1) Acute toxicity of the ascochlorin derivatives was observed by the use of Wister-Imamichi strain male rats weighing 230 ± 30 g and ddY strain male and female mice (5 weeks old) weighing 20 ±3 g which were divided into groups of 10 members each. Japanese native male rabbits weighing 2 kg ± 300 g which were divided into groups of five members each were also used. The test animals were orally or intraperitoneally administered with a different ascochlorin derivative as a suspension in 5% gum arabic aqueous solution, and the toxicity was compared with that of control in which ascochlorin was used.

[4] = Acute toxicity, rat; details: in vivo, male
Source text: as §1

[5] = Toxicity by continuous administration for 10 days (body weight); format: in vivo, Wister-Imamichi strain male rats; details: rat, 10 mg/head oral once a day
Method: Wister-Imamichi strain male rats weighing 230 ± 30 g were divided into four groups of 10 members each, 3 groups of which were orally administered with 4-O-methylascochlorin in a dose of 10 mg/head, 4-O-methylascochlorin in 20 mg/head and ascochlorin in 10 mg/head, respectively, as a suspension in 2% gum arabic aqueous solution once a day for 10 days. The remaining group was administered with 2% gum arabic aqueous solution, the dose and way of administration being identical to those disclosed above. The increase in body weight of the rats of each group was observed every day during the administration. The results are shown in the graph of FIG. 1.

[6] = Toxicity by continuous administration for 30 days (body weight, deaths); format: in vivo, Wister strain male rats; details: rat, 50 mg/kg oral once a day
Method: Wister strain male rats weighing 150 ± 20 g were divided into groups of 10 members each, and each group was orally administered with 4-O-methylascochlorin as a suspension in 2% gum arabic aqueous solution in a predetermined dose once a day for 30 days, and the increase in body weight thereof was observed each day that the administration continued. As controls, ascochlorin (50 mg/kg/day) and ethyl-α-(p-chlorophenoxy) isobutylate (500 mg/kg/day) were used. The results are shown in the graph in FIG. 2.

[7] = test system: Serum Lipid; assay: Hypolipidemic activity: change in level of serum lipid, 30 days, high-fat feed; format: in vivo, Wister strain rats; details: rat
[8] = test system: Lipid in liver and aorta; assay: Hypolipidemic activity: change of lipid level in organs and aorta abdominalis, 30 days, high-fat feed; format: in vivo, Wister strain rats; details: rat, 10.0 mg/kg oral
Method: Wister strain rats weighing 150 ± 20 g were divided into groups of 10 members each and bred with high-fat feed, the same as that used in Example 1. The rats were orally administered ascochlorin, 4-O-methylascochlorin or ethyl-α-(p-chlorophenoxy) isobutylate in a predetermined dose every morning for 30 days. Six hours after the last administration, liver and aorta of each rat were taken out and lipid level in the organs of each of the rats were determined. Lipid present in the liver and aorta was extracted with methanol-chloroform (1:1) by allowing it to stand overnight and the extract was assayed as to lipid level.

[9] = Japanese Patent No. 585,252 and U.S. Pat. No. 3,546,073; cited from earlier work
[10] = ascochlorin, background statement; cited from earlier work
[11] = especially noticeable when continuously administered; cited from earlier work
[12] = 10.0 mg/kg oral, average ± standard error

SMILES: CC(/C=C/[C@@]1(C)[C@H](C)CCC(=O)[C@@H]1C)=C\Cc1c(O)c(Cl)c(C)c(C=O)c1O [ascochlorin, reference compound]
- Cholesterol in serum [1]: 101.3 mg/dL
- Aggregation Inhibition Ratio [2]: 66.8%
- LD50 ([3]; ip, female): 68 mg/kg
- LD50 ([3]; ip, male): 102 mg/kg
- LD50 ([3]; po, female): > 5000 mg/kg
- LD50 ([3]; po, male): > 5000 mg/kg
- LD50 ([4]; ip): 258 mg/kg
- LD50 ([4]; oral): > 7000 mg/kg
- increase in body weight [5]: increased only slightly in body weight
- increase in body weight ([6]; 50 mg/kg): little or no increase in body weight; also recorded: lost weight
- rats died during the test period ([6]; group of 10): three
- Serum Cholesterol, increasing or reducing ratio based on the control ([7]; 10.0 mg/kg oral): -8.8
- Serum Free fatty acid, increasing or reducing ratio based on the control ([7]; 10.0 mg/kg oral): -4.0
- Serum Phospholipid, increasing or reducing ratio based on the control ([7]; 10.0 mg/kg oral): -4.5
- Serum Triglyceride, increasing or reducing ratio based on the control ([7]; 10.0 mg/kg oral): -10.0
- Serum β-Lipoprotein, increasing or reducing ratio based on the control ([7]; 10.0 mg/kg oral): -5.6
- Serum Cholesterol [7, 12]: 97.4 ± 4.8 mg/dL
- Serum Free fatty acid [7, 12]: 48.3±4.7 μ eq./dl
- Serum Phospholipid [7, 12]: 130.1 ± 8.4 mg/dL
- Serum Triglyceride [7, 12]: 72.0 ± 13.2 mg/dL
- Serum β-Lipoprotein [7, 12]: 720 ± 114 mg/dL
- lowering of lipids in serum, liver and aorta (such effects) ([7]; oral, groups of Tables IV and V): such effects were not observed
- Cholesterol in Liver, increasing or reducing ratio based on the control [8]: +6.5
- Cholesterol in Tunica intima of aorta abdominalis, increasing or reducing ratio based on the control [8]: -4.0
- Phospholipid in Liver, increasing or reducing ratio based on the control [8]: -1.0
- Triglyceride in Liver, increasing or reducing ratio based on the control [8]: -7.3
- Cholesterol in Liver ([8]; average ± standard error): 36.2 ± 3.5 mg/g
- Phospholipid in Liver ([8]; average ± standard error): 69.5 ± 4.2 mg/g
- Triglyceride in Liver ([8]; average ± standard error): 20.2 ± 2.5 mg/g
- known activities [9]: anti-viral, anti-tumor, anti-bacterial and sedative activities and, further, cholesterol-lowering activity
- hypolipidemic activity [10]: inadequate in its hypolipidemic activity
- toxicity [11]: strong in toxicity

— US3995061A, “Pharmaceutical composition and method of using the same” (Chugai Seiyaku Kabushiki Kaisha, priority 1974, dated 1976)
